From ChEMBL document CHEMBL1201862, “PubChem BioAssay data set” (2004)
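Where inhibition never reached the appropriate level, the endpoint shown equals the highest concentration tested. Otherwise, values were interpolated linearly from a five-concentration, 48-hour dose response in 96-well plates. Abbreviation: GI50, concentration required for 50% inhibition of growth.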 The source made the active and inactive calls. No stated cut-off is given here; in the data, active = GI50 up to about 1.1 µM and inactive = higher.

How the values were obtained:
Test in all cases: DTP human tumour cell line panel, 48 h
786-0 = test system: 786-0
A498 = test system: A498
A549 = test system: A549
ACHN = test system: ACHN
BT-549 = test system: BT-549
CAKI-1 = test system: CAKI-1
CCRF-CEM = test system: CCRF-CEM
COLO 205 = test system: COLO 205
DLD-1 = test system: DLD-1
DMS-114 = test system: DMS-114
DMS-273 = test system: DMS-273
DU-145 = test system: DU-145
EKVX = test system: EKVX
HCC 2998 = test system: HCC 2998
HCT-116 = test system: HCT-116
HCT-15 = test system: HCT-15
HL-60 = test system: HL-60
HOP-18 = test system: HOP-18
HOP-62 = test system: HOP-62
HOP-92 = test system: HOP-92
HT-29 = test system: HT-29
Hs-578T = test system: Hs-578T
IGROV-1 = test system: IGROV-1
K562 = test system: K562
KM-20L2 = test system: KM-20L2
KM12 = test system: KM12
LOX IMVI = test system: LOX IMVI
LXFL 529 = test system: LXFL 529
M14 = test system: M14
M19-MEL = test system: M19-MEL
MCF7 = test system: MCF7
MDA-MB-231 = test system: MDA-MB-231
MDA-MB-435 = test system: MDA-MB-435
MDA-N = test system: MDA-N
MOLT-4 = test system: MOLT-4
Malme-3M = test system: Malme-3M
NCI-H226 = test system: NCI-H226
NCI-H23 = test system: NCI-H23
NCI-H460 = test system: NCI-H460
NCI-H522 = test system: NCI-H522
NCI/ADR-RES = test system: NCI/ADR-RES
OVCAR-3 = test system: OVCAR-3
OVCAR-4 = test system: OVCAR-4
OVCAR-5 = test system: OVCAR-5
OVCAR-8 = test system: OVCAR-8
PC-3 = test system: PC-3
RPMI-8226 = test system: RPMI-8226
RXF 393 = test system: RXF 393
SF-268 = test system: SF-268
SF-295 = test system: SF-295
SF-539 = test system: SF-539
SK-MEL-28 = test system: SK-MEL-28
SK-MEL-2 = test system: SK-MEL-2
SK-MEL-5 = test system: SK-MEL-5
SK-OV-3 = test system: SK-OV-3
SN12C = test system: SN12C
SNB-19 = test system: SNB-19
SNB-75 = test system: SNB-75
SNB-78 = test system: SNB-78
SR = test system: SR
SW-620 = test system: SW-620
T47D = test system: T47D
TK-10 = test system: TK-10
U-251 = test system: U-251
UACC-257 = test system: UACC-257
UACC-62 = test system: UACC-62
UO-31 = test system: UO-31
XF498 = test system: XF498
RXF 631 = test system: RXF 631

CCC1CN2CCc3cc(OC)c(OC)cc3C2CC1CC1c2cc(OC)c(OC)cc2CCN1C(=O)C(Cc1c[nH]c2ccccc12)NC(=O)OC(C)(C)C (stereo not given) was tested, and the GI50 (786-0) was 2.61 µM (inactive), the GI50 (A498) was 6.65 µM (inactive) and the GI50 (A549) was 3.61 µM (inactive). The GI50 (ACHN) was 3.84 µM (inactive), the GI50 (BT-549) was 3.36 µM (inactive) and the GI50 (CAKI-1) was 6.84 µM (inactive). The GI50 (CCRF-CEM) was 3.1 µM (inactive), the GI50 (COLO 205) was 1.57 µM (inactive) and the GI50 (DLD-1) was 8.39 µM (inactive). For the same compound, the GI50 (DMS-114) was 1.38 µM (inactive), the GI50 (DMS-273) was 6.53 µM (inactive) and the GI50 (DU-145) was 2.42 µM (inactive). For the same compound, the GI50 (EKVX) was 5.7 µM (inactive), the GI50 (HCC 2998) was 2.63 µM (inactive) and the GI50 (HCT-116) was 1.6 µM (inactive). The GI50 (HCT-15) was 2.58 µM, the GI50 (HL-60) was 2.03 µM (inactive) and the GI50 (HOP-18) was 4.13 µM (inactive). The GI50 (HOP-62) was 4.91 µM (inactive), the GI50 (HOP-92) was 2.62 µM (inactive) and the GI50 (HT-29) was 2.03 µM (inactive). For the same compound, the GI50 (Hs-578T) was 2.08 µM (inactive), the GI50 (IGROV-1) was 1.73 µM (inactive) and the GI50 (K562) was 2.7 µM (inactive). The GI50 (KM-20L2) was 1.87 µM (inactive), the GI50 (KM12) was 2.83 µM (inactive) and the GI50 (LOX IMVI) was 1.88 µM (inactive). The GI50 (LXFL 529) was 3.94 µM (inactive), the GI50 (M14) was 1.79 µM (inactive) and the GI50 (M19-MEL) was 1.69 µM (inactive). For the same compound, the GI50 (MCF7) was 2.31 µM (inactive), the GI50 (MDA-MB-231) was 2.16 µM (inactive) and the GI50 (MDA-MB-435) was 1.78 µM (inactive). The GI50 (MDA-N) was 1.97 µM (inactive), the GI50 (MOLT-4) was 2.47 µM (inactive) and the GI50 (Malme-3M) was 1.74 µM (inactive). The GI50 (NCI-H226) was 13.4 µM (inactive), the GI50 (NCI-H23) was 7.67 µM (inactive) and the GI50 (NCI-H460) was 2.39 µM (inactive). For the same compound, the GI50 (NCI-H522) was 2.28 µM (inactive), the GI50 (NCI/ADR-RES) was 1.63 µM (inactive) and the GI50 (OVCAR-3) was 3.3 µM (inactive). For the same compound, the GI50 (OVCAR-4) was 1.7 µM (inactive), the GI50 (OVCAR-5) was 8.81 µM (inactive) and the GI50 (OVCAR-8) was 3.27 µM (inactive). The GI50 (PC-3) was 3.12 µM (inactive), the GI50 (RPMI-8226) was 2.52 µM (inactive) and the GI50 (RXF 393) was 2.67 µM (inactive). The GI50 (SF-268) was 5.4 µM (inactive), the GI50 (SF-295) was 3.97 µM (inactive) and the GI50 (SF-539) was 2.34 µM (inactive). The GI50 (SK-MEL-28) was 1.98 µM (inactive), the GI50 (SK-MEL-2) was 2.67 µM (inactive) and the GI50 (SK-MEL-5) was 1.67 µM (inactive). The GI50 (SK-OV-3) was 4.8 µM (inactive), the GI50 (SN12C) was 3.26 µM (inactive) and the GI50 (SNB-19) was 7.59 µM (inactive). For the same compound, the GI50 (SNB-75) was 2.59 µM (inactive), the GI50 (SNB-78) was 15.5 µM (inactive) and the GI50 (SR) was 1.73 µM (inactive). The GI50 (SW-620) was 2.82 µM (inactive), the GI50 (T47D) was 1.85 µM (inactive) and the GI50 (TK-10) was 7.83 µM (inactive). The GI50 (U-251) was 2.57 µM (inactive), the GI50 (UACC-257) was 2.71 µM (inactive) and the GI50 (UACC-62) was 5.64 µM (inactive). The GI50 (UO-31) was 2.77 µM (inactive) and the GI50 (XF498) was 1.78 µM (inactive).

For COC(=O)N/N=C(\c1nc2ccc(Cl)cc2nc1O)C(O)c1ccc([N+](=O)[O-])cc1 (stereo not given), the GI50 (786-0) was > 100 µM (inactive), the GI50 (A549) was > 100 µM (inactive) and the GI50 (CAKI-1) was > 100 µM (inactive). For the same compound, the GI50 (CCRF-CEM) was 89.7 µM (inactive), the GI50 (COLO 205) was > 100 µM (inactive) and the GI50 (DLD-1) was > 100 µM (inactive). For the same compound, the GI50 (DMS-114) was > 100 µM (inactive), the GI50 (DMS-273) was > 100 µM (inactive) and the GI50 (HCC 2998) was > 100 µM (inactive). The GI50 (HCT-116) was > 100 µM (inactive), the GI50 (HCT-15) was > 100 µM and the GI50 (HL-60) was > 100 µM (inactive). The GI50 (HOP-62) was > 100 µM (inactive), the GI50 (HOP-92) was > 100 µM (inactive) and the GI50 (HT-29) was > 100 µM (inactive). For the same compound, the GI50 (IGROV-1) was > 100 µM (inactive), the GI50 (K562) was > 100 µM (inactive) and the GI50 (KM-20L2) was > 100 µM (inactive). The GI50 (KM12) was > 100 µM (inactive), the GI50 (LOX IMVI) was > 100 µM (inactive) and the GI50 (LXFL 529) was > 100 µM (inactive). The GI50 (M14) was > 100 µM (inactive), the GI50 (M19-MEL) was > 100 µM (inactive) and the GI50 (MOLT-4) was 98.4 µM (inactive). For the same compound, the GI50 (Malme-3M) was > 100 µM (inactive), the GI50 (NCI-H226) was > 100 µM (inactive) and the GI50 (NCI-H23) was > 100 µM (inactive). The GI50 (NCI-H460) was > 100 µM (inactive), the GI50 (NCI-H522) was > 100 µM (inactive) and the GI50 (OVCAR-3) was > 100 µM (inactive). For the same compound, the GI50 (OVCAR-4) was > 100 µM (inactive), the GI50 (OVCAR-5) was > 100 µM (inactive) and the GI50 (OVCAR-8) was > 100 µM (inactive). For the same compound, the GI50 (RPMI-8226) was > 100 µM (inactive), the GI50 (RXF 393) was > 100 µM (inactive) and the GI50 (RXF 631) was > 100 µM (inactive). The GI50 (SF-268) was > 100 µM (inactive), the GI50 (SF-295) was > 100 µM (inactive) and the GI50 (SF-539) was > 100 µM (inactive). For the same compound, the GI50 (SK-MEL-28) was > 100 µM (inactive), the GI50 (SK-MEL-5) was > 100 µM (inactive) and the GI50 (SK-OV-3) was > 100 µM (inactive). For the same compound, the GI50 (SN12C) was > 100 µM (inactive), the GI50 (SNB-19) was > 100 µM (inactive) and the GI50 (SNB-75) was > 100 µM (inactive). For the same compound, the GI50 (SNB-78) was > 100 µM (inactive), the GI50 (SR) was 30.5 µM (inactive) and the GI50 (SW-620) was > 100 µM (inactive). For the same compound, the GI50 (U-251) was > 100 µM (inactive), the GI50 (UACC-257) was > 100 µM (inactive) and the GI50 (UACC-62) was > 100 µM (inactive). The GI50 (UO-31) was > 100 µM (inactive).
